What was measured:
Assay type in all cases: cell-based
[1] = tested on: OVCAR-8 cells; assay: Cancer cell viability assay with 3D cell colonies (CellTiter-Glo), OVCAR-8; details: Homo sapiens, OVCAR-8, 168 h; 3D tumorsphere growth, 7 days
Method: (§1) Ovarian cancer cell line SK-OV-3 cells were cultured in McCoy's 5a media containing 10% FBS. Ovarian cancer cell line OVCAR-8 cells were cultured in RPMI media containing 10% FBS. Additional cancer cell lines were cultured in the following media: • Ovarian cancer SW756 cells—L-15 (100% air)+10% FBS • Esophageal cancer TE-1 cells—RPMI-1640+10% FBS • Esophageal cancer KYSE-410 cells—RPMI-1640+5˜10% FBS • Esophageal cancer KYSE-70 cells—RPMI-1640+10% h.i.FBS. • Pharyngeal cancer FaDu cells—MEM+0.01 mM NEAA+10% FBS
(§2) Cell colony formation was tested using a 3D methylcellulose-based CellTiter-Glo (CTG) viability assay (Cat. No: G7573, Promega). Briefly, cells were inoculated into 96-well plates (at 1,500 cells per well) into a solution of 0.65% methylcellulose in growth media and incubated overnight at 37° C. in 5% CO2. The next day, serially diluted test compound (islatravir) or positive control (cisplatin, Cat. No. 6J015A89, Qilu Pharma) were added at the indicated concentrations, and the cells were incubated for 7 days. On day seven, 100 μL of CTG reagent was added, and the plates were incubated at room temperature for 20 min. Luminescence was read on an Envision Multi Label Reader according to manufacturer's instructions. IC50 values were determined using the following calculation: […]

[2] = tested on: KYSE-70 cells; assay: Cancer cell viability assay with 3D cell colonies (CellTiter-Glo), KYSE-70; details: Homo sapiens, KYSE-70, 168 h, 7 days
Method: as §1, §2

[3] = tested on: KYSE-410 cells; assay: Cancer cell viability assay with 3D cell colonies (CellTiter-Glo), KYSE-410; details: Homo sapiens, KYSE-410, 168 h, 7 days
Method: as §1, §2

[4] = target: T1, LINE1 reverse transcriptase (Homo sapiens, UniProt O00370); assay: Transient artificial-intron Cis LINE1 reporter assay; details: HEK 293 cells, FLuc/RLuc ratio, read-out: IC50 for inhibition of FLuc luminescence
T1 construct: expressed in transfected cells
Method: Intron-disrupted Firefly luciferase (FLuc) expression cassettes were generated as described by Xie, Y. et al. “Characterization of L1 retrotransposition with high-throughput dual-luciferase assays,” Nucleic Acid Res. (2011) Vol. 39, No. 3, e16. In addition, the plasmid contained an intact Renilla luciferase (RLuc) expression cassette on the vector backbone, in order to normalize transfection efficiency and measure potential cell toxicity.
HEK 293 cells were seeded in 96-well plates at 1,000 cells/well in 55 μL and grown for 24 hours. Cells were transfected with FuGeneHD (Promega) following the manufacturer's protocol. Each well received 0.133 ng plasmid, 0.4 μL FuGeneHD reagent, and 4.5 μL GlutaMAX-I-supplemented Opti-MEM I reduced-serum medium (Invitrogen). Cells were simultaneously treated with test compound serially diluted starting at 100 μM in a 3-fold dilution dose response.
Luminescence was measured using the Dual-Glo Luciferase Assay System (Promega) following the manufacturer's instructions. The ratio between FLuc and RLuc gene expression was used to report LINE1 activity.

[5] = tested on: IFN-β production in PBMCs; assay: Decitabine-stimulated human PBMC assay; details: PBMCs with anti-CD3/anti-CD28 and 10 μM decitabine, 5 days
Method: EasySep buffer (32 mL, Stem Cell, cat. #20144) was used to dilute 8 mL of LRSC buffy coat (from fresh Leukopak) with gentle mixing. The diluted buffy coat (20 mL) was transferred into each of two SepMate 50 tubes, and the tubes were filled with 15 mL of Lyphoprep (Stem Cell, ct. #07851) density gradient. The SepMate tubes were then centrifuged at […] for 10 minutes at room temperature with the brake on. The top layer of supernatant was collected in SepMate tubes by quickly pouring it into a new 50 mL conical tube. The PBMCs were washed with EasySep buffer x2 by centrifuging at 300G for 5 minutes. The cells were resuspended in 30 mL of EasySep and centrifuged at 100G for 5 minutes with the brake off, and the platelets were removed. The cells were then resuspended in 6 mL of 1×RBC lysis buffer (InvitroGen) and incubated at 37° C. for 5 minutes. Then, 25 mL of EasySep buffer was mixed into the tube and it was centrifuged at 300G for 5 minutes. The cells were resuspended in 10 mL of EasySep buffer and the cells were then counted with Cellometer (AO/PI). The PBMCs were resuspended in RPMI1640 (ThermoFisher)+10% FBS (HyClone)+p/s at 3×10^6/mL. The PBMCs (100 μL, 300 k PBMCs) were then seeded in a 96-well flat bottom microplate (Corning) that had been precoated with 100 μL of anti-CD3 antibody (10 μg/mL in PBS, Biolegend) or PBS at 4° C., one day before the assay was commenced. […]

T1 sequence (O00370 whole entry, looked up): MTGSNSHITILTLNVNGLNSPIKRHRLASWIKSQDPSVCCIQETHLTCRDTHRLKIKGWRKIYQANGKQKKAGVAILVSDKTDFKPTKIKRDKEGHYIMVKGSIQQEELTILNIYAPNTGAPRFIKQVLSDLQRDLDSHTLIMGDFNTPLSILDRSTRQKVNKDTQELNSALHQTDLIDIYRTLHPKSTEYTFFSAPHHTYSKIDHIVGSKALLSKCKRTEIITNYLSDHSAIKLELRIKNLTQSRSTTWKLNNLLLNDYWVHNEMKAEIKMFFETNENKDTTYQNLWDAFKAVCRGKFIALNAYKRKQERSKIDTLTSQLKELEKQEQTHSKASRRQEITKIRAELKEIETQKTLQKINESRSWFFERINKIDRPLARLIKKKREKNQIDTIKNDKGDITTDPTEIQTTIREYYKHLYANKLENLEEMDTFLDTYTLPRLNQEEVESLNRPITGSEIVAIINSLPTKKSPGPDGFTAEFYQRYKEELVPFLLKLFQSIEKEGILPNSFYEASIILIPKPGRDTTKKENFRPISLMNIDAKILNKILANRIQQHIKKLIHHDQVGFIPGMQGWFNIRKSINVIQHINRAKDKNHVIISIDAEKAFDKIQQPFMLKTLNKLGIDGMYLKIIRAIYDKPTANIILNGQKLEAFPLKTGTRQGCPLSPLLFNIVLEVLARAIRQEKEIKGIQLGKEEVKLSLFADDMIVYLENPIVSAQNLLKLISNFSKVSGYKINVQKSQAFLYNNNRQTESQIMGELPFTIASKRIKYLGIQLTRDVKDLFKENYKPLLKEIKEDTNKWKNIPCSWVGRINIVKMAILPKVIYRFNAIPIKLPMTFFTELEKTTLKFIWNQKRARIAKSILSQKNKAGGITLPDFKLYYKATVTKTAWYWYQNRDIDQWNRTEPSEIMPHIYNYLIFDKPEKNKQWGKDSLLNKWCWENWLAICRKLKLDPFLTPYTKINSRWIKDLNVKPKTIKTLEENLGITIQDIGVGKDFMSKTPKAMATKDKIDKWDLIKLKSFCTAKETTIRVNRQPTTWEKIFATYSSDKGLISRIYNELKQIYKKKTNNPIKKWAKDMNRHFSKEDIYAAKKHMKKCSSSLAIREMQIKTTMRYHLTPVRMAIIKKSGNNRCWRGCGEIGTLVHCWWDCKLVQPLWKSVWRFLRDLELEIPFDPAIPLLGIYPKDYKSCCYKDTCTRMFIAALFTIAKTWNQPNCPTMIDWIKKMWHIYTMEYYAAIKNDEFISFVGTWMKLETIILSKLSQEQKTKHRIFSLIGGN

C#C[C@]1(CO)O[C@@H](n2cnc3c(N)nc(F)nc32)C[C@@H]1O [Islatravir, (2R,3S,5R)-5-(6-amino-2-fluoro-9H-purin-9-yl)-2-ethynyl-2-(hydroxymethyl)tetrahydrofuran-3-ol]
IC50 [1]: 1.95 µM | IC50 [2]: 10 to 30 µM | IC50 [3]: > 30 µM | IC50 [4]: 20 nM | production of IFN-β [5]: activated production of IFN-β
